Results as given in patent US20150329537A2, “CDK9 INHIBITORS IN THE TREATMENT OF MIDLINE CARCINOMA” (LEADDISCOVERY CENTER GMBH, priority 2011, published 2015).
pIC50: −log10 of the molar value.

How the values were obtained:
HCC2429 cells = test: Proliferation / cell viability assay (Cell Titer Glo); assay type: cell-based; details: FIG. 1; for effect on proliferation of HCC2429 cells (in words): dose response experiments
Procedure: Proliferation assays were performed as described below under materials and methods. […] (Cpd B1 and Ro-3306) were applied at concentrations between 30 and 0.0137 μM. After 72 h incubation with compounds ATP content/proliferation was determined employing CTG (Promega). Relative proliferation values (compared to vehicle control) were used to calculate IC50 values (Excel fit; algorithm #205). IC50s of the respective compound (Y-axis; logarithmic scale) on proliferation of various cell lines (X-axis) are depicted in black bars. White bars indicate that an IC50 could not be determined due to too low activity and therefore was higher than the highest applied concentration in the assays (30 μM). IC50s of compounds on CDK9 inhibitor sensitive cell line HCC2429 are presented in grey bars.
Cell lines were maintained in RPMI 1640 cell culture medium+glutamine (PAN Biotech GmbH, Aidenbach, Germany; order no. P04-22100; P04-05500) supplemented with 10% fetal calf serum “Gold” (PAA Laboratories GmbH, Pasching, Austria; order no. A15-151) and grown in a humidified atmosphere at 37° C., 5% C02. As a first step, an optimal cell density for each cell line was determined to guarantee linearity. For viability assays with compounds, cells were then seeded at a density of 200 to 1000 per well in 25 μl in 384-well plates (Greiner Bio-One, Frickenhausen, Germany; order no. 781080). After overnight incubation at 37° C./5% CO2, 25 nl or 75 nl compounds were added to each sample well by using BIOMEK FX^P Laboratory Automation Workstation (Beckman Coulter, USA). Wells with cells and 0.1% or 0.3% DMSO in culture medium were used as positive controls, wells with cells and 10 μM staurosporine (Selleck Chemicals, Huston, USA) in culture medium were used as negative controls. Upon incubation with compounds for 72 h at 37° C./5% CO2 25 μl Cell Titer Glo reagent (Promega, Madison, USA, order no. G7573; 1:2 diluted with cell culture medium) was added to each well to determine cell viability. […] Luminescence was measured by Envision Plate Reader (Perkin Elmer, USA). […]

CDK9/CycT = target: T1, CDK9/CycT (Homo sapiens, UniProt P50750); test: Radiometric protein kinase assay (33PanQinase Activity Assay); assay type: biochemical; details: 10 μM compound, compared to vehicle control, 23 different kinases, FIG. 3
T1 construct: purchased ProQinase
Procedure: A similar experimental procedure is performed when the resulting activity within ^33PanQinase® assay is done. In advance buffers are prepared but in this case the pipetting sequence is first ATP solution diluted with assay buffer, DMSO or compound solution. The reaction (1 h at 30° C.) is started by addition of a substrate-kinase mix. During the incubation the kinase phosphorylates the substrate (different for each kinase). Due to the fact that the ATP solution contains ^33P labelled ATP the substrate proteins are labeled with ^33P. The reaction is stopped by addition of excess H3PO4. If the reaction is performed in plates binding substrate proteins, said plates are washed to reduce unspecific signals (mainly not used ATP). The incorporation of ^33P into substarte proteins is a direct measure of activity of the respective kinase. Therefore, the incorporated radioactivity is detected by scintillation counting. Data is evaluated, processed and analyzed as described for the LANCE assays.
A radiometric protein kinase assay (33PanQinase® Activity Assay) was used for measuring the kinase activity of the […] protein kinases. […]
The reaction cocktails were incubated at 30° C. for 60 minutes. […] Incorporation of 33Pi (counting of “cpm”) was determined with a microplate scintillation counter (Microbeta, Wallac).

[1] = system: Brd4-Nut mutated cell lines (HCC2429, TY-82, 690100, 143100); test: Proliferation assay on Brd4-Nut mutated versus wild type cell lines; assay type: cell-based; details: mutated: HCC2429, TY-82, 690100, 143100; wild type: Hela, HCC366, H460, HCC1143, hPBMCs; FIG. 4
Procedure: The proliferation results are presented as IC50 in μM. First, the anti-proliferative effect of CDK9 inhibitors is much more pronounced on BrdNut mutated cell lines (=sensitive cell lines).
Cell lines were maintained in RPMI 1640 cell culture medium+glutamine (PAN Biotech GmbH, Aidenbach, Germany; order no. P04-22100; P04-05500) supplemented with 10% fetal calf serum “Gold” (PAA Laboratories GmbH, Pasching, Austria; order no. A15-151) and grown in a humidified atmosphere at 37° C., 5% C02. As a first step, an optimal cell density for each cell line was determined to guarantee linearity. For viability assays with compounds, cells were then seeded at a density of 200 to 1000 per well in 25 μl in 384-well plates (Greiner Bio-One, Frickenhausen, Germany; order no. 781080). After overnight incubation at 37° C./5% CO2, 25 nl or 75 nl compounds were added to each sample well by using BIOMEK FX^P Laboratory Automation Workstation (Beckman Coulter, USA). Wells with cells and 0.1% or 0.3% DMSO in culture medium were used as positive controls, wells with cells and 10 μM staurosporine (Selleck Chemicals, Huston, USA) in culture medium were used as negative controls. […] Luminescence was measured by Envision Plate Reader (Perkin Elmer, USA). […]

T1 sequence (P50750 whole entry): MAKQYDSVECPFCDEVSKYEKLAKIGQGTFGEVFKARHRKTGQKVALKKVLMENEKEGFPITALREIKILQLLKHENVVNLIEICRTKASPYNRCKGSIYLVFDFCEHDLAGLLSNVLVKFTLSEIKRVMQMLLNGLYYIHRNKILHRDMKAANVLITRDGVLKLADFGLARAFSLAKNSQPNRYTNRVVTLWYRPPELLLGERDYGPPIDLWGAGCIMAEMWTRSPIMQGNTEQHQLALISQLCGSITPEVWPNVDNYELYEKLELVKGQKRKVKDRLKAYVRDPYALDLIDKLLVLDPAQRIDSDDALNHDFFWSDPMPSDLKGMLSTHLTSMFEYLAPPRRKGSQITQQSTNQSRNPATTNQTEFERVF
T1 sequence (O60563 whole entry partner): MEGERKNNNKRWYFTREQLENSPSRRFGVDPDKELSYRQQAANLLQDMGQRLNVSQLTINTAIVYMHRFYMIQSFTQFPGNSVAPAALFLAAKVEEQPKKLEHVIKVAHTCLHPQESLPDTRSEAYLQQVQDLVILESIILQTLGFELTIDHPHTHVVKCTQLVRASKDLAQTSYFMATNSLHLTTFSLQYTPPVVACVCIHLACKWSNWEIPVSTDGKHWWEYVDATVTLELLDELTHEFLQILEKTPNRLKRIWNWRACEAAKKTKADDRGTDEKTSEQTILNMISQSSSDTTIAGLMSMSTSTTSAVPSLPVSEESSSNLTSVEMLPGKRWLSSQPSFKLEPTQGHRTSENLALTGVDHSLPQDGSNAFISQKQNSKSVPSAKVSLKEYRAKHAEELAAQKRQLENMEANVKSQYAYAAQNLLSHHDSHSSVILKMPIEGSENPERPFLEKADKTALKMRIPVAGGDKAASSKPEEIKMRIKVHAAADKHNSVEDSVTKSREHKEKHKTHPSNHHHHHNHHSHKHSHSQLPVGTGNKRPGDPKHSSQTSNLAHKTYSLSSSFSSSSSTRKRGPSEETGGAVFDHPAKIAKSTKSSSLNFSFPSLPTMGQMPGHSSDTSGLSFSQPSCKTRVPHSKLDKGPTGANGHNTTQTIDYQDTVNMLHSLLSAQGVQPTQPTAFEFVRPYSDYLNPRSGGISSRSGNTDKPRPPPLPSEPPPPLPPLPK

COc1ccccc1-c1ncnc(Nc2cccc(CS(N)(=O)=O)c2)n1 [Cpd B1, 3-[(4-(2-Methoxyphenyl)-1,3,5-triazin-2-yl)amino] benzenemethanesulfonamide]
effect on proliferation of HCC2429 cells (in words) (HCC2429 cells): potently affected proliferation of HCC2429 cells
inhibition of CDK9 kinase activity, residual activity (in words) (CDK9/CycT): inhibits only CDK9 with high potency

COc1ccccc1-c1cc(Nc2cccc(CS(N)(=O)=O)c2)ncn1 [1073485-20-7P, 3-[[6-(2-methoxyphenyl)-4-pyrimidinyl]amino]-Benzenemethanesulfonamide]
proliferation inhibition in mutated, sensitive cell lines compared with wild type cell lines (in words) [1]: much more potent in mutated, sensitive cell lines

O=C1NC(=NCc2cccs2)S/C1=C\c1ccc2ncccc2c1 [Ro-3306]
pIC50 (HCC2429 cells; 72 h incubation, ATP content/proliferation by CTG, 30 to 0.0137 μM): < 5.00
effect on proliferation of HCC2429 cells (in words) (HCC2429 cells): did not show comparable effects
